Test results: ChEMBL document CHEMBL1629496, “Four diphenylpropanes and a cycloheptadibenzofuran from Bussea sakalava from the Madagascar dry forest” (J Nat Prod, 2010)

test system: A2780; assay: Antiproliferative activity against drug-sensitive human A2780 cells; format: functional, cell-based

SMILES	IC50 [µM]
COc1ccc(CCCc2cc(O)c(OC)c(O)c2)c(O)c1O [BUSSEALIN A]	36
COc1cc(OC)c(CCCc2ccc(OC)c(O)c2O)cc1O [BUSSEALIN B]	24
COc1ccc(CCCc2ccc(OC)c(O)c2O)cc1O [BUSSEALIN C]	36
COc1cc(OC)c(OC)cc1CCCc1ccc(OC)c(O)c1O [BUSSEALIN D]	40
COc1c(O)c2c3c(oc4c(OC)c(O)cc(c43)CCC2)c1OC [BUSSEALIN E]	45
